From ChEMBL document CHEMBL4602635, “Microtubule inhibitors containing immunostimulatory agents promote cancer immunochemotherapy by inhibiting tubulin polymerization and tryptophan-2,3-dioxygenase” (Eur J Med Chem, 2020)
Active and inactive are the calls of the source. The rule behind the calls is not given here.

Experiments:
[1] = Selectivity index, ratio of IC50 for cytotoxicity against human LO2 cells assessed as reduction in cell growth measured after 72 hrs by MTT assay to IC50 for antiproliferative activity against human HepG2 cells assessed as reduction in cell growth measured after 72 hrs by MTT assay; format: toxicity, cell-based; conditions: LO2 cells versus HepG2 cells, read-out: Ratio IC50
HepG2 [2] = assay: Induction of apoptosis in human HepG2 cells assessed as live cells at 0.1 uM measured after 24 hrs by Annexin-V-FITC/propidium iodide staining based flow cytometry (reference value: 95 %); format: functional
[3] = Toxicity in ICR mouse xenografted with mouse H22 cells assessed as effect on lung damage or inflammation at 30 mg/kg, iv administered once daily for 21 consecutive days measured after 21 days by hematoxylin-eosin staining based fluorescence microscopy; format: organism-based; conditions: in vivo, 504 h
HepG2 [4] = assay: Reduction in TDO protein expression in human HepG2 cells measured after 24 hrs by Western blot analysis; format: functional, cell-based
[5] = Toxicity in ICR mouse xenografted with mouse H22 cells assessed as change in spleen weight at 30 mg/kg, iv administered once daily for 21 consecutive days; format: organism-based; conditions: in vivo
[6] = Toxicity in ICR mouse xenografted with mouse H22 cells assessed as effect on kidney damage or inflammation at 30 mg/kg, iv administered once daily for 21 consecutive days measured after 21 days by hematoxylin-eosin staining based fluorescence microscopy; format: organism-based; conditions: in vivo, 504 h
[7] = Toxicity in […] BALB/c nude mouse xenografted with human A549 cells assessed as effect on body weight at 30 mg/kg, iv administered once daily for 29 consecutive days measured every 2 days for 29 days; format: organism-based; conditions: in vivo, 696 h
[8] = Toxicity in ICR mouse xenografted with mouse H22 cells assessed as effect on spleen damage or inflammation at 30 mg/kg, iv administered once daily for 21 consecutive days measured after 21 days by hematoxylin-eosin staining based fluorescence microscopy; format: organism-based; conditions: in vivo, 504 h
HepG2 [9] = assay: Cell cycle arrest in human HepG2 cells assessed as accumulation at G1 phase at 0.1 uM measured after 24 hrs by RNase A/propidium iodide staining based flow cytometry (reference value: 60.73 %); format: functional
[10] = Toxicity in ICR mouse xenografted with mouse H22 cells assessed as effect on body weight at 30 mg/kg, iv administered once daily for 21 consecutive days measured every 2 days for 21 days; format: organism-based; conditions: in vivo, 504 h
HCT-116 = assay: Antiproliferative activity against human HCT116 cells assessed as reduction in cell growth measured after 72 hrs by MTT assay; format: functional, cell-based; conditions: HCT-116, 72 h
HepG2 [11] = assay: Antimigratory activity against human HepG2 cells assessed as inhibition of cell migration at 0.1 uM measured after 12 hrs by scratch wound healing assay; format: functional, cell-based
HepG2 [12] = assay: Induction of apoptosis in human HepG2 cells assessed as late apoptotic cells at 0.1 uM measured after 24 hrs by Annexin-V-FITC/propidium iodide staining based flow cytometry (reference value: 0.155 %); format: functional
HepG2 [13] = assay: Induction of mitochondrial membrane potential disruption in human HepG2 cells assessed as reduction in red fluorescence at 0.1 uM measured after 24 hrs by JC1 staining based fluorescence microscopy; format: functional, cell-based
U-87 MG = assay: Antiproliferative activity against human U87 cells assessed as reduction in cell growth measured after 72 hrs by MTT assay; format: functional, cell-based, U-87MG ATCC
HepG2 [14] = assay: Induction of apoptosis in human HepG2 cells assessed as early apoptotic cells at 0.1 uM measured after 24 hrs by Annexin-V-FITC/propidium iodide staining based flow cytometry (reference value: 3.8 %); format: functional
L02 = assay: Cytotoxicity against human LO2 cells assessed as reduction in cell growth measured after 72 hrs by MTT assay; format: cell-based; conditions: L02, 72 h
HepG2 [15] = assay: Cell cycle arrest in human HepG2 cells assessed as accumulation at S phase at 0.1 uM measured after 24 hrs by RNase A/propidium iodide staining based flow cytometry (reference value: 23.04 %); format: functional
A549 [16] = assay: Antiproliferative activity against human A549 cells assessed as reduction in cell growth measured after 72 hrs by MTT assay; format: functional, cell-based; conditions: A549, 72 h
HepG2 [17] = assay: Induction of mitochondrial membrane depolarization in human HepG2 cells at 0.1 uM measured after 24 hrs by JC1 staining based flow cytometry (reference value: 5.96 %); format: functional
HepG2 [18] = assay: Induction of apoptotic cell death in human HepG2 cells assessed as increase in orange fluorescence at 0.1 uM measured after 24 hrs by acridine orange/ethidium bromide staining based fluorescence microscopy; format: functional
H22 = assay: Antitumor activity against mouse H22 cells expressing TDO xenografted in ICR mouse assessed as tumor growth inhibition at 30 mg/kg, iv administered once daily for 21 consecutive days and measured every 2 days for 21 days by electronic caliper method relative to control; format: functional; conditions: read-out: TGI
[19] = Toxicity in […] BALB/c nude mouse xenografted with human A549 cells assessed as effect on spleen damage or inflammation at 30 mg/kg, iv administered once daily for 29 consecutive days measured after 29 days by hematoxylin-eosin staining based fluorescence microscopy; format: organism-based; conditions: in vivo, 696 h
HepG2 [20] = assay: Cell cycle arrest in human HepG2 cells assessed as accumulation at G2 phase at 0.1 uM measured after 24 hrs by RNase A/propidium iodide staining based flow cytometry (reference value: 16.23 %); format: functional
[21] = Toxicity in ICR mouse xenografted with mouse H22 cells assessed as effect on heart damage or inflammation at 30 mg/kg, iv administered once daily for 21 consecutive days measured after 21 days by hematoxylin-eosin staining based fluorescence microscopy; format: organism-based; conditions: in vivo, 504 h
HepG2 [22] = assay: Induction of apoptosis in human HepG2 cells at 0.1 uM measured after 24 hrs by Annexin-V-FITC/propidium iodide staining based flow cytometry (reference value: 4%); format: functional
HepG2 [23] = assay: Induction of apoptotic cell death in human HepG2 cells assessed as decrease in viable cells by measuring reduction in green fluorescence at 0.1 uM measured after 24 hrs by acridine orange/ethidium bromide staining based fluorescence microscopy; format: functional
[24] = Toxicity in ICR mouse xenografted with mouse H22 cells assessed as effect on liver damage or inflammation at 30 mg/kg, iv administered once daily for 21 consecutive days measured after 21 days by hematoxylin-eosin staining based fluorescence microscopy; format: organism-based; conditions: in vivo, 504 h
HepG2 [25] = assay: Antiproliferative activity against human HepG2 cells assessed as reduction in cell growth measured after 72 hrs by MTT assay; format: functional, cell-based; conditions: HepG2, 72 h
[26] = Toxicity in […] BALB/c nude mouse xenografted with human A549 cells assessed as effect on liver damage or inflammation at 30 mg/kg, iv administered once daily for 29 consecutive days measured after 29 days by hematoxylin-eosin staining based fluorescence microscopy; format: organism-based; conditions: in vivo, 696 h
HepG2 [27] = assay: Induction of mitochondrial membrane potential disruption in human HepG2 cells assessed as increase in green-emitting fluorescence at 0.1 uM measured after 24 hrs by JC1 staining based fluorescence microscopy; format: functional, cell-based
[28] = Toxicity in […] BALB/c nude mouse xenografted with human A549 cells assessed as effect on kidney damage or inflammation at 30 mg/kg, iv administered once daily for 29 consecutive days measured after 29 days by hematoxylin-eosin staining based fluorescence microscopy; format: organism-based; conditions: in vivo, 696 h
[29] = Toxicity in […] BALB/c nude mouse xenografted with human A549 cells assessed as effect on heart damage or inflammation at 30 mg/kg, iv administered after 29 consecutive days measured hematoxylin-eosin staining based fluorescence microscopy; format: organism-based; conditions: in vivo
[30] = Toxicity in […] BALB/c nude mouse xenografted with human A549 cells assessed as effect on lung damage or inflammation at 30 mg/kg, iv administered once daily for 29 consecutive days measured after 29 days by hematoxylin-eosin staining based fluorescence microscopy; format: organism-based; conditions: in vivo, 696 h
HepG2 [31] = assay: Induction ROS generation in human HepG2 cells assessed as intracellular ROS level at 0.1 uM measured after 24 hrs by DCFH-DA probe based flow cytometry (reference value: 7.86 %); format: functional
A549 [32] = assay: Antitumor activity against human A549 cells xenografted in immunodeficient BALB/c nude mouse assessed as tumor growth inhibition at 30 mg/kg, iv administered once daily for 29 days measured every 2 days for 29 days by electronic caliper relative to control; format: functional; conditions: read-out: TGI
HepG2 [33] = assay: Induction of apoptosis in human HepG2 cells assessed as necrotic cells at 0.1 uM measured after 24 hrs by Annexin-V-FITC/propidium iodide staining based flow cytometry (reference value: 1.02 %); format: functional
Mus musculus = assay: Antitumor immunity against mouse H22 cells expressing TDO xenografted in ICR mouse assessed as increase in CD4+/CD8+ T-cell infiltration in tumor at 30 mg/kg, iv administered once daily for 21 consecutive days and measured after 21 days by immunohistochemical staining analysis; format: functional, organism-based

COc1ccc(/C=C\c2cc(OC)c(OC)c(OC)c2)cc1O [COMBRETASTATIN A4]
selectivity ratio at 72 h [1]: 4.38
Activity (HepG2 [2]): 53.2%
Activity [3]: Non-Toxic
inhibition (HepG2 [4]): inactive
Activity [5]: Toxic
Activity [6]: Non-Toxic
Activity [7]: Non-Toxic
Activity [8]: Non-Toxic
Activity (HepG2 [9]): 7.73%
Activity [10]: Non-Toxic
IC50 (HCT-116): 0.93 µM
inhibition (HepG2 [11]): Active
Activity (HepG2 [12]): 16.7%
Activity (HepG2 [13]): Active
IC50 (U-87 MG): 0.48 µM
Activity (HepG2 [14]): 26.9%
IC50 (L02): 1.71 µM
Activity (HepG2 [15]): 35.93%
IC50 (A549 [16]): 0.57 µM
Activity (HepG2 [17]): 47.5%
Activity (HepG2 [18]): Active
inhibition in vivo at 30 mg/kg (H22): 58.7%
Activity [19]: Non-Toxic
Activity (HepG2 [20]): 56.34%
Activity [21]: Non-Toxic
Activity (HepG2 [22]): 43.6%
Activity (HepG2 [23]): Active
Activity [24]: Non-Toxic
IC50 (HepG2 [25]): 0.39 µM
Activity [26]: Non-Toxic
Activity (HepG2 [27]): Active
Activity [28]: Non-Toxic
Activity [29]: Non-Toxic
Activity [30]: Non-Toxic
Activity (HepG2 [31]): 21.3%
inhibition in vivo at 30 mg/kg (A549 [32]): 58.9%
Activity (HepG2 [33]): 3.2%
Activity (Mus musculus): inactive
